# Target: OGG1 (Homo sapiens (Human), UniProt O15527)
# Assay: In vitro OGG1 activity assay
# Type: biochemical
# Conditions: 800 pM OGG1 enzyme, 2 nM human APEX1, 10 nM 8-oxoA:C substrate
# How it was run: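 Fluorescence-release assay on a duplex oligonucleotide carrying an OGG1 substrate base beside a fluorophore, quenched from the complementary strand. Excess APEX1 cleaves the abasic site left by base excision, melting the duplex and unquenching the fluorophore. Compounds in DMSO were dispensed before enzyme and substrate, and fluorescein signal was read.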
# Sequence of OGG1 (O15527 whole entry): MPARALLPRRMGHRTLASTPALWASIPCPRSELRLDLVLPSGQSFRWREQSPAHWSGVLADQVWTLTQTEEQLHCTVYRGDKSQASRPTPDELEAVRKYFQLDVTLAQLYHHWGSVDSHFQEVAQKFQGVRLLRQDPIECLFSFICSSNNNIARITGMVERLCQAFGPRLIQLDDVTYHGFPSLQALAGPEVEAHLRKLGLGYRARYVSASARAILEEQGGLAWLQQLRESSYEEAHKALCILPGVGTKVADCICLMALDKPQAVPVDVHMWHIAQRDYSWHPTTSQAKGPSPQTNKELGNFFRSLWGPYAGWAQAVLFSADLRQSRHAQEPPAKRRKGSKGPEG
row,Compound,IC50 [nM]
1,"Cc1cc(NC(=O)[C@H]2CC[C@@H](n3c(=O)[nH]c4ccc(F)cc43)CC2)ccc1O [Example 220, Cis-4-(6-fluoro-2-oxo-2,3-dihydro-1H-1,3-benzodiazol-1-yl)-N-(4-hydroxy-3-methylphenyl)cyclohexane-1-carboxamide]",8630
2,"Cc1ccc(NC(=O)[C@H]2CC[C@@H](n3c(=O)[nH]c4c(Br)cccc43)CC2)c(O)c1 [Example 222, Cis-4-(4-bromo-2-oxo-2,3-dihydro-1H-1,3-benzodiazol-1-yl)-N-(2-hydroxy-4-methylphenyl)cyclohexane-1-carboxamide]",350
3,"Cc1cc(N)c(NC(=O)[C@H]2CC[C@@H](n3c(=O)[nH]c4c(Br)cccc43)CC2)cc1C [Example 223, Cis-N-(2-amino-4,5-dimethylphenyl)-4-(4-bromo-2-oxo-2,3-dihydro-1H-1,3-benzodiazol-1-yl)cyclohexane-1-carboxamide]",1670
4,"NC(=O)c1ccc(NC(=O)[C@H]2CC[C@@H](n3c(=O)[nH]c4c(Br)cccc43)CC2)cc1 [Example 224, 4-[cis-4-(4-bromo-2-oxo-2,3-dihydro-1H-1,3-benzodiazol-1-yl)cyclohexaneamido]benzamide]",3660
5,"O=c1[nH]c2c(Br)cccc2n1[C@H]1CC[C@@H](C(=O)Nc2cccc(CO)c2)CC1 [Example 231, Cis-4-(4-bromo-2-oxo-2,3-dihydro-1H-1,3-benzodiazol-1-yl)-N-[3-(hydroxymethyl)phenyl]cyclohexane-1-carboxamide]",8050
6,"COc1cc(NC(=O)[C@H]2CC[C@@H](n3c(=O)[nH]c4ncccc43)CC2)ccc1C [Example 232, Cis-N-(3-methoxy-4-methylphenyl)-4-{2-oxo-1H,2H,3H-imidazo[4,5-b]pyridin-1-yl}cyclohexane-1-carboxamide]",109
7,"COc1ccc(NC(=O)[C@H]2CC[C@@H](n3c(=O)[nH]c4ncccc43)CC2)cc1C [Example 233, Cis-N-(4-methoxy-3-methylphenyl)-4-{2-oxo-1H,2H,3H-imidazo[4,5-b]pyridin-1-yl}cyclohexane-1-carboxamide]",47.6
8,"COc1ccc(NC(=O)[C@H]2CC[C@@H](n3c(=O)[nH]c4ncccc43)CC2)cc1 [Example 234, Cis-N-(4-methoxyphenyl)-4-{2-oxo-1H,2H,3H-imidazo[4,5-b]pyridin-1-yl}cyclohexane-1-carboxamide]",572
9,"COc1ncc(NC(=O)[C@H]2CC[C@@H](n3c(=O)[nH]c4ncccc43)CC2)cc1C [Example 235, Cis-N-(6-methoxy-5-methylpyridin-3-yl)-4-{2-oxo-1H,2H,3H-imidazo[4,5-b]pyridin-1-yl}cyclohexane-1-carboxamide]",1450
10,"COc1cc(NC(=O)[C@H]2CC[C@@H](n3c(=O)[nH]c4cnccc43)CC2)ccc1C [Example 236, Cis-N-(3-methoxy-4-methylphenyl)-4-{2-oxo-1H,2H,3H-imidazo[4,5-c]pyridin-1-yl}cyclohexane-1-carboxamide]",196
11,"COc1cc(NC(=O)[C@H]2CC[C@@H](n3c(=O)[nH]c4c(S(=O)(=O)CC(=O)O)cccc43)CC2)ccc1C [Example 239, 2-({2-Oxo-1-[cis-4-[(3-methoxy-4-methylphenyl)carbamoyl]cyclohexyl]-2,3-dihydro-1H-1,3-benzodiazol-4-yl}sulfonyl)acetic acid]",50.6
12,"COc1cc(NC(=O)[C@H]2CC[C@@H](n3c(=O)[nH]c4c(N5CCOCC5)cccc43)CC2)ccc1C [Example 241, Cis-N-(3-methoxy-4-methylphenyl)-4-[4-(morpholin-4-yl)-2-oxo-2,3-dihydro-1H-1,3-benzodiazol-1-yl]cyclohexane-1-carboxamide]",960

# The remaining lines, values ahead:
row,IC50 [nM],Compound
1,126,"COc1cc(NC(=O)[C@H]2CC[C@@H](n3c(=O)[nH]c4c(OCC(=O)O)cccc43)CC2)ccc1C [Example 242, 2-({2-Oxo-1-[cis-4-[(3-methoxy-4-methylphenyl)carbamoyl]cyclohexyl]-2,3-dihydro-1H-1,3-benzodiazol-4-yl}oxy)acetic acid]"
2,3630,"COCCOc1cccc2c1[nH]c(=O)n2[C@H]1CC[C@@H](C(=O)Nc2ccc3cc[nH]c3c2)CC1 [Example 246, Cis-N-(1H-indol-6-yl)-4-[4-(2-methoxyethoxy)-2-oxo-2,3-dihydro-1H-1,3-benzodiazol-1-yl]cyclohexane-1-carboxamide]"
3,0.62,"COc1cc(NC(=O)[C@H]2CC[C@@H](n3c(=O)[nH]c4c(C(=O)NCCN)cccc43)CC2)ccc1C [Example 247, N-(2-Aminoethyl)-2-oxo-1-[cis-4-[(3-methoxy-4-methylphenyl)carbamoyl]cyclohexyl]-2,3-dihydro-1H-1,3-benzodiazole-4-carboxamide]"
4,6.77,"COc1cc(NC(=O)[C@H]2CC[C@@H](n3c(=O)[nH]c4c(C(=O)NCC(O)CO)cccc43)CC2)ccc1C (stereo partly drawn) [Example 248, N-(2,3-Dihydroxypropyl)-2-oxo-1-[cis-4-[(3-methoxy-4-methylphenyl)carbamoyl]cyclohexyl]-2,3-dihydro-1H-1,3-benzodiazole-4-carboxamide]"
5,4.25,"COc1cc(NC(=O)[C@H]2CC[C@@H](n3c(=O)[nH]c4c(C(=O)NCCNS(C)(=O)=O)cccc43)CC2)ccc1C [Example 251, N-(2-Methanesulfonamidoethyl)-2-oxo-1-[cis-4-[(3-methoxy-4-methylphenyl)carbamoyl]cyclohexyl]-2,3-dihydro-1H-1,3-benzodiazole-4-carboxamide]"
6,3.94,"COc1cc(NC(=O)[C@H]2CC[C@@H](n3c(=O)[nH]c4c(C(=O)NCCN5CCNCC5)cccc43)CC2)ccc1C [Example 252, 2-Oxo-N-[2-(piperazin-1-yl)ethyl]-1-[cis-4-[(3-methoxy-4-methylphenyl)carbamoyl]cyclohexyl]-2,3-dihydro-1H-1,3-benzodiazole-4-carboxamide]"
7,6.79,"COc1cc(NC(=O)[C@H]2CC[C@@H](n3c(=O)[nH]c4c(C(=O)NCCNC(C)=O)cccc43)CC2)ccc1C [Example 253, Cis-4-{4-[(2-acetamidoethyl)carbamoyl]-2-oxo-2,3-dihydro-1H-1,3-benzodiazol-1-yl}-N-(3-methoxy-4-methylphenyl)cyclohexane-1-carboxamide]"
8,0.21,"COc1cc(NC(=O)[C@H]2CC[C@@H](n3c(=O)[nH]c4c(C(=O)NCC5CCCN5)cccc43)CC2)ccc1C (stereo partly drawn) [Example 254, 2-Oxo-N-[(pyrrolidin-2-yl)methyl]-1-[cis-4-[(3-methoxy-4-methylphenyl)carbamoyl]cyclohexyl]-2,3-dihydro-1H-1,3-benzodiazole-4-carboxamide]"
9,30.9,"COc1cc(NC(=O)[C@H]2CC[C@@H](n3c(=O)[nH]c4c(NC(=O)CN)cccc43)CC2)ccc1C [Example 255, Cis-4-[4-(2-aminoacetamido)-2-oxo-2,3-dihydro-1H-1,3-benzodiazol-1-yl]-N-(3-methoxy-4-methylphenyl)cyclohexane-1-carboxamide]"
10,2690,"COc1cc(NC(=O)[C@H]2CC[C@@H](n3c(=O)[nH]c4cc(CN)ccc43)CC2)ccc1C [Example 256, Cis-4-[5-(aminomethyl)-2-oxo-2,3-dihydro-1H-1,3-benzodiazol-1-yl]-N-(3-methoxy-4-methylphenyl)cyclohexane-1-carboxamide]"
